# Source: article PMC11536310, “Evaluation of STK17B as a cancer immunotherapy target utilizing highly potent and selective small molecule inhibitors” (Frontiers in Immunology, 2024)
# Test system: phospho-myosin light chain 2 (pMLC2) S19
# Test: pMLC2 flow cytometry assay in mouse whole blood in vitro
# Assay type: cell-based
# Details: ROCK1/2 inhibitor added to top concentration (30 µM) of BLU4565
structure (smiles),measurement,value
CC1=C(C(=O)Nc2cc3cn[nH]c3cc2F)C(c2ccc(C(F)(F)F)cc2)CC(=O)N1 (stereo not shown) [GSK429286A],further reduction of pMLC2 median fluorescence intensity signal compared with BLU4565 alone,Minimal further reduction
